Results published in publication PMC12189828, “Substitution of Proline Residues by 4-Fluoro-L-Proline Affects the Mechanism of the Proline-Rich Antimicrobial Peptide Api137” (Antibiotics, 2025).
Where a SMILES comes first, the peptide text is derived from it. [ ]: non-standard residue; d: D form. The star is where a group is joined. Orn(α-tetramethylguanidino) = CN(C)C(=N[C@@H](CCCN)C(=O)*)N(C)C; Pro(trans-4-F) = O=C(O)[C@@H]1C[C@@H](F)CN1; Pro(cis-4-F) = O=C(O)[C@@H]1C[C@H](F)CN1

Columns and labels:
[1] = test system: 50S subunit assembly / 70S ribosome in E. coli RN31; experiment: Ribosome profile analysis (RPA), sucrose gradient of E. coli RN31 lysate; type: cell-based, Escherichia coli; conditions: 90 min; for RPA [pre-50S formation]: E. coli RN31, 33% TSB, peptide 8 µg/mL, 5–25% sucrose gradient, n = 2 (Api137 n = 7)
Procedure: E. coli RN31 was grown in 33% TSB (37 °C, 200 rpm) from a starting OD600 of 0.05 to an OD600 of 0.2, measured on a NanoPhotometer® (NP80; Implen; Westlake Village, CA, USA), and divided into subcultures that were inoculated with a peptide ([…]) before being cultured for 90 min (37 °C, 200 rpm). The following steps were performed on ice. Cells were harvested by centrifugation (4000× g, 4 °C, 25 min), washed with TICO buffer (20 mmol/L Hepes-KOH, pH 7.6, 6 mmol/L MgAc2, 30 mmol/L KAc), centrifuged (4000× g, 25 min, 4 °C), and stored at −80 °C. The cell pellet was suspended in TICO buffer (500 µL) and mixed with silica beads (zirconium glass pellets, 100 µm diameter; Carl Roth; Karlsruhe, Germany) to lyse the cells on a FastPrep-24^TM 5G (MP Biomedicals, Solon, OH, USA) using three disruption cycles (30 s, 6.0 m/s) interrupted by 1 min of incubation on ice after each cycle. Cell debris was removed by centrifugation (5000× g, 4 °C, 5 min), the supernatant was transferred to a new reaction tube, centrifuged (20,000× g, 4 °C, 20 min), the absorbance was recorded at 260 nm on a NanoPhotometer® NP80, and the sample was stored at −80 °C.
A 5% (w/v) sucrose solution (6.5 mL) in TICO buffer containing 2-mercaptoethanol (4 mmol/L) was poured into an open-top centrifuge tube (13.2 mL, 14 × 89 mm, Beckman Coulter) and bottomed with a 25% (w/v) sucrose solution (6.5 mL) in TICO buffer containing 2-mercaptoethanol (4 mmol/L) using a cannula. The tube was sealed with parafilm and placed horizontally at 4 °C for 3 h and vertically at 4 °C for 30 min. A portion of the upper layer (550 µL) was replaced by lysate (500 µL, A260 = 30) and centrifuged using a swing-out rotor (SW 41 Ti, 52,500× g, 4 °C, 19 h) without a brake. The contents were transferred from bottom-up to obtain equal volumes in all wells of a black 96-well plate with a flat bottom (96 Well PP black Greiner Bio-One GmbH, Frickenhausen, Germany) using the Äkta Purifier 10 system, and absorbance was recorded at a wavelength of 254 nm. Fluorescence was measured in the plate using the PARADIGM at excitation (λex) and emission (λem) wavelengths of 485 nm and 535 nm for eGFP and 585 nm and 635 nm, respectively, for mCherry and normalized to the 70S ribosome peak (set to 100%).

[2] = test system: in vitro expression of sfGFP in the presence of RF1; experiment: In vitro transcription-translation (iTT) assay of sfGFP in the presence of RF1; type: biochemical; conditions: peptide 5 µmol/L, RF1, 37 °C, 2 h, fluorescence, normalized to absence of PrAMPs, n = 3
Procedure: The sfGFP expression analysis relied on the NEB PureExpress Delta RF123 Kit (New England Biolabs, Frankfurt, Germany). The DNA template encoding sfGFP with a UAG stop codon was amplified from the pY71sfGFP vector by PCR using the primers sfGFP fwd ([…]) and sfGFP rev ([…]). The release factor RF1 of the kit was diluted 50-fold (v/v) in 1× Pure System Buffer (PSB, 1 mol/L magnesium acetate, 0.5 mol/L K3PO4 (pH 7.3), 1 mol/L potassium glutamate, 1 mol/L NH4Cl, 0.5 mol/L CaCl2, 1 mol/L spermidine, 0.1 mol/L putrescine, 0.1 mol/L DTT). sfGFP expression was performed in a freshly prepared mixture of kit solution A (2 µL), kit solution B (1.5 µL), 50-fold diluted RF1 (0.5 µL), sfGFP template (0.1325 pmol, 35 ng) or water as control (0.25 µL), PSB (0.25 µL), and a PrAMP (50 or 0 µmol/L) dissolved in water (0.5 µL). The reaction mixture was transferred to a black 384-well plate (flat bottom, PS, 784900, Greiner Bio-One GmbH), covered with a lid, and incubated (37 °C, 2 h) in a microplate reader (Gemini EM, Molecular Devices, San Jose, CA, USA). Fluorescence was recorded every 10 min (λex = 485 nm, λem = 535 nm).

[3] = test system: E. coli RN31; experiment: Growth inhibition of E. coli RN31 during 90 min exponential growth phase; type: cell-based, Escherichia coli; conditions: E. coli RN31, 33% TSB, peptide 8 µg/mL, 90 min, OD600; two biological replicates (n = 2)
Procedure: The following steps were performed on ice. Cells were harvested by centrifugation (4000× g, 4 °C, 25 min), washed with TICO buffer (20 mmol/L Hepes-KOH, pH 7.6, 6 mmol/L MgAc2, 30 mmol/L KAc), centrifuged (4000× g, 25 min, 4 °C), and stored at −80 °C. The cell pellet was suspended in TICO buffer (500 µL) and mixed with silica beads (zirconium glass pellets, 100 µm diameter; Carl Roth; Karlsruhe, Germany) to lyse the cells on a FastPrep-24^TM 5G (MP Biomedicals, Solon, OH, USA) using three disruption cycles (30 s, 6.0 m/s) interrupted by 1 min of incubation on ice after each cycle. Cell debris was removed by centrifugation (5000× g, 4 °C, 5 min), the supernatant was transferred to a new reaction tube, centrifuged (20,000× g, 4 °C, 20 min), the absorbance was recorded at 260 nm on a NanoPhotometer® NP80, and the sample was stored at −80 °C. […]

Row | Structure (SMILES) | RPA [pre-50S formation] [1] | Residual iTT (sfGFP expression relative to no PrAMP) [2] [%] | reduction of bacterial growth vs untreated control [3] [%] | ribosomal profile, pre-50S peak ([1]; E. coli RN31, adjusted peptide concentration 16 µg/mL) | Residual iTT (sfGFP expression relative to no PrAMP) ([2]; listed as 4S-Fpr14) [%] | Residual iTT (sfGFP expression relative to no PrAMP) ([2]; listed as Pro14 4S-Fpr (cis)) [%] | Residual iTT (sfGFP expression relative to no PrAMP) ([2]; listed as 4R-Fpr14) [%] | Residual iTT (sfGFP expression relative to no PrAMP) ([2]; listed as Pro14 4R-Fpr (trans)) [%]
1 | CC[C@H](C)[C@H](NC(=O)[C@H](Cc1ccc(O)cc1)NC(=O)[C@@H](NC(=O)[C@@H]1C[C@H](F)CN1C(=O)[C@H](CCCNC(=N)N)NC(=O)[C@H](CC(N)=O)NC(=O)[C@H](CC(N)=O)NC(=O)[C@H](CCCN)N=C(N(C)C)N(C)C)C(C)C)C(=O)N1CCC[C@H]1C(=O)N[C@@H](CCCNC(=N)N)C(=O)N1CCC[C@H]1C(=O)N[C@@H](CCCNC(=N)N)C(=O)N1CCC[C@H]1C(=O)N1CCC[C@H]1C(=O)N[C@@H](Cc1c[nH]cn1)C(=O)N1CCC[C@H]1C(=O)N[C@@H](CCCNC(=N)N)C(=O)N[C@@H](CC(C)C)C(=O)O [Api839] ({Orn(α-tetramethylguanidino)}-NNR[Pro(cis-4-F)]VYIPRPRPPHPRL-OH) | yes | 23 ± 0.2 |  |  |  |  |  | 
2 | CC[C@H](C)[C@H](NC(=O)[C@H](Cc1ccc(O)cc1)NC(=O)[C@@H](NC(=O)[C@@H]1C[C@@H](F)CN1C(=O)[C@H](CCCNC(=N)N)NC(=O)[C@H](CC(N)=O)NC(=O)[C@H](CC(N)=O)NC(=O)[C@H](CCCN)N=C(N(C)C)N(C)C)C(C)C)C(=O)N1CCC[C@H]1C(=O)N[C@@H](CCCNC(=N)N)C(=O)N1CCC[C@H]1C(=O)N[C@@H](CCCNC(=N)N)C(=O)N1CCC[C@H]1C(=O)N1CCC[C@H]1C(=O)N[C@@H](Cc1c[nH]cn1)C(=O)N1CCC[C@H]1C(=O)N[C@@H](CCCNC(=N)N)C(=O)N[C@@H](CC(C)C)C(=O)O [Api840] ({Orn(α-tetramethylguanidino)}-NNR[Pro(trans-4-F)]VYIPRPRPPHPRL-OH) | yes | 35 ± 0.1 |  |  |  |  |  | 
3 | CC[C@H](C)[C@H](NC(=O)[C@H](Cc1ccc(O)cc1)NC(=O)[C@@H](NC(=O)[C@@H]1CCCN1C(=O)[C@H](CCCNC(=N)N)NC(=O)[C@H](CC(N)=O)NC(=O)[C@H](CC(N)=O)NC(=O)[C@H](CCCN)N=C(N(C)C)N(C)C)C(C)C)C(=O)N1CCC[C@H]1C(=O)N[C@@H](CCCNC(=N)N)C(=O)N1C[C@@H](F)C[C@H]1C(=O)N[C@@H](CCCNC(=N)N)C(=O)N1CCC[C@H]1C(=O)N1CCC[C@H]1C(=O)N[C@@H](Cc1c[nH]cn1)C(=O)N1CCC[C@H]1C(=O)N[C@@H](CCCNC(=N)N)C(=O)N[C@@H](CC(C)C)C(=O)O [Api841] ({Orn(α-tetramethylguanidino)}-NNRPVYIPR[Pro(cis-4-F)]RPPHPRL-OH) | yes | 32 ± 0.9 | 65 |  |  |  |  | 
4 | CC[C@H](C)[C@H](NC(=O)[C@H](Cc1ccc(O)cc1)NC(=O)[C@@H](NC(=O)[C@@H]1CCCN1C(=O)[C@H](CCCNC(=N)N)NC(=O)[C@H](CC(N)=O)NC(=O)[C@H](CC(N)=O)NC(=O)[C@H](CCCN)N=C(N(C)C)N(C)C)C(C)C)C(=O)N1CCC[C@H]1C(=O)N[C@@H](CCCNC(=N)N)C(=O)N1C[C@H](F)C[C@H]1C(=O)N[C@@H](CCCNC(=N)N)C(=O)N1CCC[C@H]1C(=O)N1CCC[C@H]1C(=O)N[C@@H](Cc1c[nH]cn1)C(=O)N1CCC[C@H]1C(=O)N[C@@H](CCCNC(=N)N)C(=O)N[C@@H](CC(C)C)C(=O)O [Api842] ({Orn(α-tetramethylguanidino)}-NNRPVYIPR[Pro(trans-4-F)]RPPHPRL-OH) | reduced | 31 ± 0.7 | 49 |  |  |  |  | 
5 | CC[C@H](C)[C@H](NC(=O)[C@H](Cc1ccc(O)cc1)NC(=O)[C@@H](NC(=O)[C@@H]1CCCN1C(=O)[C@H](CCCNC(=N)N)NC(=O)[C@H](CC(N)=O)NC(=O)[C@H](CC(N)=O)NC(=O)[C@H](CCCN)N=C(N(C)C)N(C)C)C(C)C)C(=O)N1CCC[C@H]1C(=O)N[C@@H](CCCNC(=N)N)C(=O)N1CCC[C@H]1C(=O)N[C@@H](CCCNC(=N)N)C(=O)N1C[C@@H](F)C[C@H]1C(=O)N1CCC[C@H]1C(=O)N[C@@H](Cc1c[nH]cn1)C(=O)N1CCC[C@H]1C(=O)N[C@@H](CCCNC(=N)N)C(=O)N[C@@H](CC(C)C)C(=O)O [Api843] ({Orn(α-tetramethylguanidino)}-NNRPVYIPRPR[Pro(cis-4-F)]PHPRL-OH) | yes | 28 ± 3.2 | 56 |  |  |  |  | 
6 | CC[C@H](C)[C@H](NC(=O)[C@H](Cc1ccc(O)cc1)NC(=O)[C@@H](NC(=O)[C@@H]1CCCN1C(=O)[C@H](CCCNC(=N)N)NC(=O)[C@H](CC(N)=O)NC(=O)[C@H](CC(N)=O)NC(=O)[C@H](CCCN)N=C(N(C)C)N(C)C)C(C)C)C(=O)N1CCC[C@H]1C(=O)N[C@@H](CCCNC(=N)N)C(=O)N1CCC[C@H]1C(=O)N[C@@H](CCCNC(=N)N)C(=O)N1CCC[C@H]1C(=O)N1C[C@@H](F)C[C@H]1C(=O)N[C@@H](Cc1c[nH]cn1)C(=O)N1CCC[C@H]1C(=O)N[C@@H](CCCNC(=N)N)C(=O)N[C@@H](CC(C)C)C(=O)O [Api847] ({Orn(α-tetramethylguanidino)}-NNRPVYIPRPRP[Pro(cis-4-F)]HPRL-OH) | reduced |  |  | a pre-50S peak was observed | 21 | 21 ± 0.2 |  | 
7 | CC[C@H](C)[C@H](NC(=O)[C@H](Cc1ccc(O)cc1)NC(=O)[C@@H](NC(=O)[C@@H]1CCCN1C(=O)[C@H](CCCNC(=N)N)NC(=O)[C@H](CC(N)=O)NC(=O)[C@H](CC(N)=O)NC(=O)[C@H](CCCN)N=C(N(C)C)N(C)C)C(C)C)C(=O)N1CCC[C@H]1C(=O)N[C@@H](CCCNC(=N)N)C(=O)N1CCC[C@H]1C(=O)N[C@@H](CCCNC(=N)N)C(=O)N1CCC[C@H]1C(=O)N1C[C@H](F)C[C@H]1C(=O)N[C@@H](Cc1c[nH]cn1)C(=O)N1CCC[C@H]1C(=O)N[C@@H](CCCNC(=N)N)C(=O)N[C@@H](CC(C)C)C(=O)O [Api848] ({Orn(α-tetramethylguanidino)}-NNRPVYIPRPRP[Pro(trans-4-F)]HPRL-OH) | no |  |  |  |  |  | 64 | 64 ± 4.6
